This is an account of results in paper PMC12418948, “Intranasal Administration of KCNN2 Blocking Peptide Improves Deficits in Cognitive Flexibility in Mouse Model of Fetal Alcohol Spectrum Disorders” (International Journal of Neuropsychopharmacology, 2025).

One may read the IC50 as the concentration that gives 50% inhibition. Read a high IC50 as lower potency.

One data set concerns the target human KCNN2 (Homo sapiens, UniProt Q9H2S1). The data set is described as follows: Thallium flux assay, KCNN2 channel block. It counts as cell-based. As for the experimental part: The effect of tamapin and Lei-Dab7 to block the KCNN2 channel was assessed by the thallium flux (potassium ion surrogate) assay using FLIPR Potassium Assay KIT (Molecular Devices, CA) and a FLIPR TETRA fluorescence imaging plate reader (Molecular Devices, CA). Human embryonic kidney (HEK) 293 cell line stably expressing human KCNN2 (Charles River, MA) were plated on BioCoat Poly-D-Lysine 384-well Black/Clear Plates (BD Biosciences, NJ) at 15 000 to 30 000 cells per well and incubated at 37°C overnight or until cells form near confluent monolayer. A baseline fluorescence was recorded during the pre-incubation period, followed by activation in the stimulus buffer (K^+-free buffer with 5 mM Tl^+). The effects of tamapin and Lei-Dab7 on KCNN2 to inhibit KCNN2 channel were evaluated at 4 different concentrations (n = 4) each, based on fluorescence changes due to the treatments. The signal elicited by the respective positive control agonist [1 μM A23187 (Tocris, UK)] was set to 0% inhibition, and the signal in the presence of the respective positive control antagonists [3 μM UCL1684 (Tocris, UK)] was set to 100% inhibition. The IC50 values were defined as the concentration at which the percent inhibition equals 50.
To determine the dose of Lei-Dab7 to be tested, we compared the effect of Lei-Dab7 and tamapin in blocking human KCNN2 expressed in HEK293 cells using a thallium-based potassium ion channel assay. […] Based on the effective dose of tamapin in mitigating motor skill–learning deficits in PAE mice (15 μg/kg body weight via i.p.)[17] and higher brain uptake of therapeutics by intranasal delivery than by i.p. delivery, we chose a dose of 3.0 μg/kg body weight to test the effect of intranasal administration of Lei-Dab7.
Supplementary Figure 3. Concentration-response relationships of Lei-Dab7 and Tamapin on the Inhibition of KCNN2 channels. (A, B) The concentration-response relationships of Lei-Dab7 (A) and Tamapin (B) on the inhibition of KCNN2 (SK2) channels examined by the thallium flux assay are presented. […]

For data set [1], the system named is Jurkat (clone E6-1) cells. As to the kind of experiment: ATP cell viability (cytotoxicity) assay, CellTiter-Glo 2.0. The format is cell-based, human. As for the experimental part:
Potential cytotoxicity of Lei-Dab7 was assessed by an ATP detection assay. Jurkat (clone E6-1) cells were used as they express KCNN2 channels constitutively and have been used to assess the cytotoxicity of compounds that block KCNN2.[37]^,[38] After recovery from cryopreservation, cells were plated into V-bottom, 96-well plates (2 × 10^4 cells per well), and the compound (Lei-Dab7) or control (negative control: media alone or 10% PBS in media; positive control: approximately 1% sodium dodecyl sulfate in media) was added into the culture media. After incubation for 24 hours, cells were assessed for viability using a CellTiter-Glo 2.0 kit (Promega, WI). Briefly, CellTiter-Glo 2.0 reagent was thawed and warmed to approximately 22°C, then mixed by gentle inversion. Once thoroughly mixed, 100 μL of reagent was distributed into each well, and the plates were gently mixed for approximately 2 minutes on an orbital shaker for cell lysis. The plates were then incubated for approximately10 minutes at room temperature to stabilize the luminescent signal. The amount of light produced from each well was quantified using a Cytation 5 plate reader (BioTek, VT). Cell viability was calculated as a percentage of the mean of the negative control […] for each well. […]

The structures appear in SMILES notation. Entries after “also recorded” stand apart in the source; their conditions may differ. Positions of bridges follow the written chain, without caps; N, C: chain ends. Non-standard residues stand in square brackets, D forms with d. Residues, ends and D or L forms follow the SMILES beside them. Dab = NCC[C@H](N)C(=O)O Bounds are passed on as bounds.

Chain of human KCNN2 (Q9H2S1 whole entry): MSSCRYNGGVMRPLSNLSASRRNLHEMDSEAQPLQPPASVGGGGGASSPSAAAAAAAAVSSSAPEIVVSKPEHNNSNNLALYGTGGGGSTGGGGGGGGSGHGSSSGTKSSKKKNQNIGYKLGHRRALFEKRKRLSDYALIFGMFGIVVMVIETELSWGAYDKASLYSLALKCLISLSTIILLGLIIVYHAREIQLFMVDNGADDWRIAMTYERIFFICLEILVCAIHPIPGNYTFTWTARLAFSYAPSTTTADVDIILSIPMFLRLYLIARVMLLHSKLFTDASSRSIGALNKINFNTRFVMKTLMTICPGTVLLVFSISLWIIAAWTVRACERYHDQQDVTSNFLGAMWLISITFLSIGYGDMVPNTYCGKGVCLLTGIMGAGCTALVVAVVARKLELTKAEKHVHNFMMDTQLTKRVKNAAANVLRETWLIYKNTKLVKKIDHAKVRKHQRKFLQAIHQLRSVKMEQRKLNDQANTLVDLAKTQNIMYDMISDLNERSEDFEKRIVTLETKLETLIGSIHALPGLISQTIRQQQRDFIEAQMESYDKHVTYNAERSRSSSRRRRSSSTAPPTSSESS

In turn, `CC[C@H](C)[C@@H]1NC(=O)[C@@H]2CSSC[C@H](NC(=O)[C@H](Cc3ccccc3)NC(=O)[C@H](C)N)C(=O)N[C@@H](CC(N)=O)C(=O)N[C@@H](CC(C)C)C(=O)N[C@@H](CCCNC(=N)N)C(=O)N[C@@H](CCN)C(=O)N[C@H]3CSSC[C@H](NC(=O)[C@H](CCCCN)NC(=O)[C@H](CC(=O)O)NC(=O)CNC1=O)C(=O)N[C@@H](CCC(=O)O)C(=O)N[C@H](C(=O)N[C@H](C(=O)N[C@@H](CCCCN)C(=O)N[C@@H](Cc1c[nH]cn1)C(N)=O)C(C)C)CSSC[C@H](NC(=O)[C@H](CO)NC(=O)[C@H](CC(C)C)NC(=O)[C@H](CCC(N)=O)NC3=O)C(=O)N[C@@H](CCCNC(=N)N)C(=O)N[C@@H](CO)C(=O)N[C@@H](CC(C)C)C(=O)NCC(=O)N[C@@H](CC(C)C)C(=O)N[C@@H](CC(C)C)C(=O)NCC(=O)N[C@@H](CCCCN)C(=O)N2` [Lei-Dab7, Leiurotoxin-1 Dab7] (H-AFCNLR[Dab]CQLSCRSLGLLGKCIGDKCECVKH-NH2; disulfide 3-21, 8-26, 12-28) yielded an IC50 on human KCNN2 (HEK293 stably expressing human KCNN2, thallium flux, FLIPR Potassium Assay Kit, FLIPR TETRA, 4 concentrations, n = 4, 0% = 1 μM A23187, 100% = 3 μM UCL1684) of 720 nM. Besides, the “IC50 of Lei-Dab7 relative to tamapin (times higher)” value at human KCNN2 (ratio of IC50 Lei-Dab7 to IC50 tamapin, human KCNN2 in HEK293) is on record as greater than 10 times. In data set [1] (24-hour culture, ATP cell viability assay, even as high as at 100 μM), the cytotoxicity result was “did not show any cytotoxicity”. For the same compound, the “cytotoxicity (summary wording)” value in data set [1] (in vitro, abstract/introduction wording) was “negligible cytotoxicity; also recorded: no detectable cytotoxicity”.
